Converted amounts (≈) assume the structure as drawn. Where a name gives a salt, the structure may show the parent alone.

One assay has as its system Acinetobacter baumannii. Put plainly: Antibacterial activity against Acinetobacter baumannii AB34 assessed as bacterial growth inhibition. Type of assay: functional.
A further assay concerns Bacillus cereus. The experiment in a line: Antibacterial activity against Bacillus cereus ATCC 4342 assessed as bacterial growth inhibition. The assay is classed as functional.
For another assay, the system named is Bacillus subtilis. The experiment in a line: Antibacterial activity against Bacillus subtilis ATCC 6051 assessed as bacterial growth inhibition. Type of assay: functional.
Another assay concerns Staphylococcus. The experiment in a line: Antibacterial activity against methicillin-resistant coagulase-negative Staphylococcus assessed as bacterial growth inhibition. Type of assay: functional.
A further assay has as its system NCI-H446. The experiment in a line: Cytotoxicity against human NCI-H446 cells by SRB assay. The assay is classed as functional, cell-based.
Another assay deals with ASPC1. The experiment in a line: Cytotoxicity against human ASPC1 cells by SRB assay. The assay is classed as functional, cell-based.
A further assay relates to Pseudomonas aeruginosa. The experiment in a line: Antibacterial activity against Pseudomonas aeruginosa ATCC 27853 assessed as bacterial growth inhibition. The assay is classed as functional.
For assay [1], the system named is Staphylococcus aureus. Put plainly: Antibacterial activity against Staphylococcus aureus ATCC 29213 assessed as bacterial growth inhibition. Type of assay: functional.
The subject of another assay is MDA-MB-231. The experiment in a line: Cytotoxicity against human MDA-MB-231 cells by SRB assay. Type of assay: functional, cell-based.
The nature of assay [2]: Cytotoxicity against human H446/EP cells by SRB assay. The assay is classed as functional, cell-based.
In assay [3] the test system is Staphylococcus aureus. The experiment in a line: Antibacterial activity against methicillin-resistant Staphylococcus aureus assessed as bacterial growth inhibition. The assay is classed as functional.
In the next assay the test system is K562. Put plainly: Cytotoxicity against human K562 cells by MTT assay. Type of assay: functional, cell-based. A general note: Tetrazolium dyes change colour on reduction, which living cells bring about.

On to `O=C(O)c1cn(C2CC2)c2cc(N3CCNCC3)c(F)cc2c1=O` [CIPROFLOXACIN], for which the MIC in the assay on Acinetobacter baumannii is 16 µg/mL (≈ 48.3 µM); in the assay with Bacillus cereus it was 0.063 µg/mL (≈ 0.19 µM); with Bacillus subtilis, 0.63 µg/mL (≈ 1.9 µM); in the assay with Staphylococcus, 4 µg/mL (≈ 12.1 µM).

As for `COc1cc(O)ccc1N/N=C1/C=Cc2cc(O)cc(O)c2C1=O`, the 50% inhibitory concentration (IC50) (in the assay with NCI-H446; with ASPC1; in the assay on MDA-MB-231; in [2]; in the assay on K562) was above 15 µM each time. Besides, the MIC in the assay on Pseudomonas aeruginosa is above 150 µg/mL; with Staphylococcus aureus [1], 128 µg/mL (≈ 392 µM); in the assay on Acinetobacter baumannii it was above 150 µg/mL; in the assay on Staphylococcus aureus [3], 64 µg/mL (≈ 196 µM); in the assay with Bacillus cereus it was 128 µg/mL (≈ 392 µM); with Bacillus subtilis, 128 µg/mL (≈ 392 µM). In addition, in the assay on Staphylococcus, the MIC stood at 64 µg/mL (≈ 196 µM).

`COc1cc(O)ccc1N/N=C1\C(=O)C=C(Cc2ccccc2)NC1=O`: the IC50 with NCI-H446 was 4.1 µM; in the assay on ASPC1, above 15 µM; in the assay on MDA-MB-231 it was above 15 µM; in assay [2], above 15 µM; with K562, above 15 µM. Also, the MIC in the assay with Pseudomonas aeruginosa was above 150 µg/mL; with Staphylococcus aureus [1] it was 32 µg/mL (≈ 91.1 µM); in the assay on Acinetobacter baumannii it was above 150 µg/mL; with Staphylococcus aureus [3], above 150 µg/mL; in the assay on Bacillus cereus, above 150 µg/mL; with Bacillus subtilis, above 150 µg/mL. Also, the MIC in the assay on Staphylococcus is above 150 µg/mL.

As for `COc1cc(O)ccc1N/N=C1/C=Cc2cccc(O)c2C1=O`, the half-inhibitory concentration (IC50) (with NCI-H446; in the assay on ASPC1; in the assay with MDA-MB-231; in assay [2]; with K562) was above 15 µM throughout. The minimal inhibitory concentration (MIC) in the assay with Pseudomonas aeruginosa is above 150 µg/mL; with Staphylococcus aureus [1], 128 µg/mL (≈ 412 µM); with Acinetobacter baumannii it was above 150 µg/mL; with Staphylococcus aureus [3], 128 µg/mL (≈ 412 µM); in the assay with Bacillus cereus, 128 µg/mL (≈ 412 µM); with Bacillus subtilis it was 128 µg/mL (≈ 412 µM). Also, the MIC in the assay on Staphylococcus turned out to be 128 µg/mL (≈ 412 µM).

As to `COc1cccc2c1C(=O)c1c(O)c3c(c(O)c1C2=O)C[C@@](O)(C(=O)CO)C[C@@H]3O[C@H]1C[C@H](N)[C@H](O)[C@H](C)O1` [DOXORUBICIN HYDROCHLORIDE], the values for the half-maximal inhibitory concentration (IC50) (in the assay with NCI-H446; in the assay on ASPC1; in [2]) were 0.6 µM, 0.21 µM and 6 µM, respectively.

Take `COc1cc(O)ccc1N/N=C1/C(=O)[C@@](C)(OC(=O)c2c(C)cc(O)cc2O)C(=O)C2=C1C=C(/C=C/C(=O)O)OC2`: the IC50 was 10.2 µM in the assay on NCI-H446; above 15 µM with ASPC1; above 15 µM with MDA-MB-231; above 15 µM in [2]; above 15 µM with K562. The minimum inhibitory concentration (MIC) with Pseudomonas aeruginosa is above 150 µg/mL; with Staphylococcus aureus [1], 64 µg/mL (≈ 113 µM); in the assay on Acinetobacter baumannii, above 150 µg/mL; in the assay on Staphylococcus aureus [3], above 150 µg/mL; with Bacillus cereus, above 150 µg/mL; in the assay with Bacillus subtilis, above 150 µg/mL. Also, in the assay on Staphylococcus, the minimum inhibitory concentration (MIC) is above 150 µg/mL.

Broadly, the MIC is the smallest concentration in the dilution series that meets the test's criterion for growth inhibition. Usually IC50 stands for the point on the concentration scale where inhibition reaches its midpoint. A lower IC50 goes with higher potency.

These data come from ChEMBL document CHEMBL5634179, “Phenylhydrazone Alkaloids from the Deep-Sea Cold Seep Derived Fungus Talaromyces amestolkiae HDN21-0307” (J Nat Prod, 2024).
